# From ChEMBL document CHEMBL1201862, “PubChem BioAssay data set” (2004)
#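 Where inhibition never reached the appropriate level, the endpoint shown equals the highest concentration tested. Otherwise, values were interpolated linearly from a five-concentration, 48-hour dose response in 96-well plates. GI50 = concentration required for 50% inhibition of growth.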 Calls of active or inactive are those of the source. Cut-off read from the data, not from the text of the source: active = GI50 up to about 1.1 µM and inactive = higher.
# Columns and labels:
# Experiment in all cases: DTP human tumour cell line panel, 48 h
# A498 = system: A498
# A549 = system: A549
# BT-549 = system: BT-549
# COLO 205 = system: COLO 205
# HOP-62 = system: HOP-62
# HT-29 = system: HT-29
# Hs-578T = system: Hs-578T
# M14 = system: M14
# MCF7 = system: MCF7
# MDA-MB-231 = system: MDA-MB-231
# MOLT-4 = system: MOLT-4
# NCI-H23 = system: NCI-H23
# NCI-H522 = system: NCI-H522
# OVCAR-3 = system: OVCAR-3
# SF-268 = system: SF-268
# SF-295 = system: SF-295
# SN12C = system: SN12C
# NCI-H460 = system: NCI-H460
# ACHN = system: ACHN
SMILES,GI50 (A498),GI50 (A549),GI50 (BT-549),GI50 (COLO 205),GI50 (HOP-62),GI50 (HT-29),GI50 (Hs-578T),GI50 (M14),GI50 (MCF7),GI50 (MDA-MB-231),GI50 (MOLT-4),GI50 (NCI-H23),GI50 (NCI-H522),GI50 (OVCAR-3),GI50 (SF-268),GI50 (SF-295),GI50 (SN12C),GI50 (NCI-H460),GI50 (ACHN)
ClC(Cl)(Cl)C1CCOC1n1nnc2ccccc21 (stereo not drawn),> 100 µM (inactive),63 µM (inactive),25.9 µM (inactive),> 100 µM (inactive),> 100 µM (inactive),73.5 µM (inactive),89.7 µM (inactive),> 100 µM (inactive),> 100 µM (inactive),> 100 µM (inactive),21.9 µM (inactive),24.3 µM (inactive),82.4 µM (inactive),> 100 µM (inactive),> 100 µM (inactive),> 100 µM (inactive),> 100 µM (inactive),,
Cc1c(/C=N/NC(=S)Nc2ccccc2Cl)c(=O)n(-c2ccccc2)n1C,30.4 µM (inactive),27.6 µM (inactive),54.2 µM (inactive),38.7 µM (inactive),22.7 µM (inactive),29.4 µM (inactive),24 µM (inactive),60.3 µM (inactive),46.5 µM (inactive),14.9 µM (inactive),20.5 µM (inactive),,22.5 µM (inactive),34.1 µM (inactive),43.8 µM (inactive),28.1 µM (inactive),44.2 µM (inactive),25.4 µM (inactive),
CCCc1cc(=O)oc2c3c(c4c(c12)OC(C)(C)CC4)O[C@H](C)[C@@H](C)[C@H]3O,,20 µM (inactive),13.4 µM (inactive),15.7 µM (inactive),16.6 µM (inactive),10 µM (inactive),22.6 µM (inactive),16.1 µM (inactive),16.3 µM (inactive),14.1 µM (inactive),12.4 µM (inactive),16 µM (inactive),,18.5 µM (inactive),17.4 µM (inactive),16.2 µM (inactive),16.4 µM (inactive),19 µM (inactive),
CCOC(CN(C)C(=O)OCC(Cl)(Cl)Cl)OCC,,> 100 µM (inactive),82.8 µM (inactive),27.7 µM (inactive),> 100 µM (inactive),79.1 µM (inactive),29.7 µM (inactive),69 µM (inactive),67.9 µM (inactive),25.5 µM (inactive),29.3 µM (inactive),59.7 µM (inactive),47.8 µM (inactive),> 100 µM (inactive),> 100 µM (inactive),> 100 µM (inactive),> 100 µM (inactive),61.5 µM (inactive),99.1 µM (inactive)
CC1CC[C@@]2(OC1)OC1CC3C4CCC5C[C@@H](OC6OC(CO)C(OC7OC(CO)C(O)C(OC8OC(CO)C(O)C(OC9OC(CO)C(O)C(O)C9O)C8O)C7OC7OC(CO)C(O)C(O)C7O)C(O)C6O)[C@H](O)C[C@]5(C)C4CC[C@]3(C)C1[C@@H]2C (stereo partly drawn),> 80.5 µM (inactive),> 80.5 µM (inactive),> 80.5 µM (inactive),> 80.5 µM (inactive),> 80.5 µM (inactive),> 80.5 µM (inactive),> 80.5 µM (inactive),> 80.5 µM (inactive),> 80.5 µM (inactive),> 80.5 µM (inactive),,> 80.5 µM (inactive),,> 80.5 µM (inactive),> 80.5 µM (inactive),> 80.5 µM (inactive),> 80.5 µM (inactive),> 80.5 µM (inactive),> 80.5 µM (inactive)
CCC(NC1=NCCO1)c1cccs1 (stereo not drawn),22.3 µM (inactive),14.1 µM (inactive),20.1 µM (inactive),17.3 µM (inactive),,19.7 µM (inactive),11.2 µM (inactive),19 µM (inactive),15.6 µM (inactive),20.7 µM (inactive),> 100 µM (inactive),16.9 µM (inactive),19.5 µM (inactive),16.9 µM (inactive),,15.1 µM (inactive),,15.7 µM (inactive),15.9 µM (inactive)
COc1cccc(C23CCN(C)C(CC(O)C2)C3)c1OC (stereo not drawn),> 100 µM (inactive),> 100 µM (inactive),> 100 µM (inactive),> 100 µM (inactive),> 100 µM (inactive),> 100 µM (inactive),> 100 µM (inactive),> 100 µM (inactive),> 100 µM (inactive),> 100 µM (inactive),> 100 µM (inactive),> 100 µM (inactive),> 100 µM (inactive),> 100 µM (inactive),> 100 µM (inactive),> 100 µM (inactive),> 100 µM (inactive),,> 100 µM (inactive)
Cc1c(C)c2c(c(N)c1C#N)C(=O)N(Nc1ccccc1)C2=O,,74.3 µM (inactive),> 100 µM (inactive),> 100 µM (inactive),,,46.7 µM (inactive),> 100 µM (inactive),60.1 µM (inactive),31.9 µM (inactive),92.7 µM (inactive),,29.2 µM (inactive),52.2 µM (inactive),40.8 µM (inactive),34.1 µM (inactive),> 100 µM (inactive),60.8 µM (inactive),60.1 µM (inactive)
N#C[BH2-][n+]1ccc(C(=O)NNCc2ccccc2)cc1,> 100 µM (inactive),> 100 µM (inactive),> 100 µM (inactive),> 100 µM (inactive),,,> 100 µM (inactive),> 100 µM (inactive),> 100 µM (inactive),> 100 µM (inactive),> 100 µM (inactive),,> 100 µM (inactive),> 100 µM (inactive),> 100 µM (inactive),> 100 µM (inactive),> 100 µM (inactive),> 100 µM (inactive),> 100 µM (inactive)
COc1ccc(C2SC(C)C(=O)N2c2nc(-c3nc(-c4ccc(Cl)cc4)cs3)cs2)cc1 (stereo not drawn),,> 100 µM (inactive),> 100 µM (inactive),> 100 µM (inactive),> 100 µM (inactive),> 100 µM (inactive),> 100 µM (inactive),> 100 µM (inactive),> 100 µM (inactive),> 100 µM (inactive),49.2 µM (inactive),> 100 µM (inactive),> 100 µM (inactive),> 100 µM (inactive),> 100 µM (inactive),> 100 µM (inactive),> 100 µM (inactive),> 100 µM (inactive),> 100 µM (inactive)
O=C(/C=C/c1ccccc1)/C=N/N1C(=S)N(c2ccccc2)C(=N\c2ccccc2)/C1=N/c1ccccc1,,> 100 µM (inactive),> 100 µM (inactive),> 100 µM (inactive),> 100 µM (inactive),> 100 µM (inactive),> 100 µM (inactive),> 100 µM (inactive),33 µM (inactive),> 100 µM (inactive),> 100 µM (inactive),> 100 µM (inactive),11.2 µM (inactive),> 100 µM (inactive),> 100 µM (inactive),> 100 µM (inactive),> 100 µM (inactive),58.7 µM (inactive),> 100 µM (inactive)
NC(CCC(=O)O)C(=O)N1CCN(c2nc(N3CCCC3)c3nc(Cl)c(NCc4ccccc4)nc3n2)CC1 (stereo not drawn),,12.5 µM (inactive),12.1 µM (inactive),10.7 µM (inactive),13.2 µM (inactive),9.95 µM (inactive),20 µM (inactive),10 µM (inactive),7.24 µM (inactive),14.4 µM (inactive),7.53 µM (inactive),15.4 µM (inactive),14.8 µM (inactive),8.71 µM (inactive),13.1 µM (inactive),11.6 µM (inactive),15.8 µM (inactive),10.3 µM (inactive),15.1 µM (inactive)
S=c1c2cn[nH]c2nc2scc(-c3ccc(Cl)cc3)n12,,13 µM (inactive),10.5 µM (inactive),23.5 µM (inactive),16.9 µM (inactive),16.7 µM (inactive),8.73 µM (inactive),17 µM (inactive),18.5 µM (inactive),17 µM (inactive),15.6 µM (inactive),13.8 µM (inactive),24.9 µM (inactive),20.1 µM (inactive),16.6 µM (inactive),> 10 µM (inactive),16.6 µM (inactive),20.6 µM (inactive),12.9 µM (inactive)
COc1cc2c(cc1OC)[C@@](C)(C(O)C(O)C(C)(C)O)NCC2 (stereo partly drawn),> 100 µM (inactive),> 100 µM (inactive),> 100 µM (inactive),> 100 µM (inactive),> 100 µM (inactive),> 100 µM (inactive),> 100 µM (inactive),> 100 µM (inactive),> 100 µM (inactive),> 100 µM (inactive),> 100 µM (inactive),> 100 µM (inactive),> 100 µM (inactive),> 100 µM (inactive),> 100 µM (inactive),> 100 µM (inactive),> 100 µM (inactive),,> 100 µM (inactive)
CC(C)c1cc(C(C)C)c(S(=O)(=O)N/N=C2\CC3CCC2(C)C3(C)C)c(C(C)C)c1 (stereo not drawn),0.0222 µM (active),23.6 µM (inactive),> 100 µM (inactive),12.9 µM (inactive),74.8 µM (inactive),14.1 µM (inactive),29.7 µM (inactive),51.6 µM (inactive),10 µM (inactive),5.74 µM (inactive),6.68 µM (inactive),17.4 µM (inactive),5.37 µM (inactive),33.7 µM (inactive),34.9 µM (inactive),10.4 µM (inactive),12.4 µM (inactive),,15 µM (inactive)
